Data reported in article PMC3164656, “Burkholderia cenocepacia BC2L-C Is a Super Lectin with Dual Specificity and Proinflammatory Activity” (PLoS Pathogens, 2011).
Values joined by “and” are separate entries in the source; they are usually repeats but may differ in a detail not shown here. Equal values may be shown once.

What was measured:
BC2L-C-ct [1] = target: T1, BC2L-C-ct (Burkholderia cenocepacia, UniProt B4EH86); assay: Isothermal titration microcalorimetry, binding of saccharides to BC2L-C-ct; conditions: ITC, 25°C; for Kd / n (stoichiometry): 20 mM Tris pH 7.5
T1 sequence (B4EH86 158-272): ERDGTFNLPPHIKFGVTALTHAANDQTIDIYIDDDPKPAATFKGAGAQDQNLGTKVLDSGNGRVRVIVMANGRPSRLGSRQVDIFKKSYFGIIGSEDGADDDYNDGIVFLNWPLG

BC2L-C [2] = target: T2, BC2L-C (Burkholderia cenocepacia, UniProt B4EH86); assay: Isothermal titration microcalorimetry, binding of saccharides to whole BC2L-C; conditions: ITC, 25°C; for Kd / n (stoichiometry): 20 mM Tris pH 7.5
T2 sequence (B4EH86 1-272): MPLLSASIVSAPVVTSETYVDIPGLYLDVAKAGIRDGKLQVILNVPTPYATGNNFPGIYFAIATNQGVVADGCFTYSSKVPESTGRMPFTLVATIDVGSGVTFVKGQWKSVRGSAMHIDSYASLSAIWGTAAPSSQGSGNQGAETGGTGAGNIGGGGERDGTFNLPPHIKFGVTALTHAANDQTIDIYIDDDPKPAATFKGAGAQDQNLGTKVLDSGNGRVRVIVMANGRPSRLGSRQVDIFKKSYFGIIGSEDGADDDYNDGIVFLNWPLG

BC2L-C [3] = target: T2, BC2L-C; assay: SPR on monosaccharide-activated surfaces, whole lectin; format: binding; conditions: CM5 chip, Biot-PAA-monosaccharide, 25°C
BC2L-C-ct [4] = target: T1, BC2L-C-ct; assay: SPR on monosaccharide-activated surfaces, C-terminal domain; format: binding; conditions: CM5 chip, Biot-PAA-monosaccharide, 25°C
BC2L-C-ct [5] = target: T1, BC2L-C-ct; assay: Glycan array (Consortium for Functional Glycomics), C-terminal domain; format: binding; conditions: Alexa-labelled lectin 200 µg/mL, array version 3.2
Description: Purified BC2L-C lectin samples were labeled with Alexa Fluor 488-TFP (Invitrogen, CA) according to manufacturer's instructions and re-purified on a D-Salt polyacrylamide desalting column (Pierce, Rockford IL). Alexa-labeled proteins were used for glycan-array screening with standard procedure of the Core H of the Consortium for Functional Glycomics (Emory University, Atlanta, GA, http://www.functionalglycomics.org). The screening of the printed glycan microarray chip (version 3.2, with 377 glycans from a library of natural and synthetic glycans) was performed with a concentration of BC2L-C of 200 µg/mL dissolved in 20 mM HEPES, 140 mM NaCl, 5 mM CaCl2, pH 7.5 for all samples.

Compound | -TΔS (BC2L-C-ct [1]) [kcal/mol] | -ΔH (BC2L-C-ct [1]) [kcal/mol] | Kd (BC2L-C-ct [1]) | n (stoichiometry) (BC2L-C-ct [1]) | recognition on glycan array (BC2L-C-ct [5]) | also measured
OC[C@H]1OC(O)[C@@H](O)[C@@H](O)[C@@H]1O (stereo partly drawn) [D-Man, D-mannose] | 7.6 | 13.6 | 37.4 µM | 0.50 | shortest fragment recognized, albeit not efficiently | n (stoichiometry) (BC2L-C-ct [1]; listed as Man): ~0.5; -TΔS (BC2L-C [2]): 8.25 kcal/mol; Kd (BC2L-C [2]): 21.8 µM; n (stoichiometry) (BC2L-C [2]): 0.57; binding of the lectin to sugar-modified surface (SPR) (BC2L-C [3]): interacts strongly; binding of the C-terminal domain to sugar-modified surface (SPR) (BC2L-C-ct [4]): binds only to mannose-coated chips
C=CCO[C@H]1O[C@H]([C@@H](O)CO)[C@@H](O)[C@H](O[C@H]2O[C@H]([C@@H](O)CO)[C@@H](O)[C@H](O)[C@@H]2O)[C@@H]1O [Diheptose, allyl L-glycero-α-D-manno-heptopyranosyl-(1→3)-L-glycero-α-D-manno-heptopyranoside] | 3.82 |  | 88 µM and 88.1 µM | 0.48 |  | 
CC(=O)N[C@H]1C(O)O[C@H](CO)[C@@H](O[C@@H]2O[C@H](CO)[C@H](O)[C@H](O)[C@H]2O[C@@H]2O[C@@H](C)[C@@H](O)[C@@H](O)[C@@H]2O)[C@@H]1O[C@@H]1O[C@@H](C)[C@@H](O)[C@@H](O)[C@@H]1O (stereo partly drawn) [Lewis Y] |  |  |  |  |  | -TΔS (BC2L-C [2]): 3.87 kcal/mol; -ΔH (BC2L-C [2]): 9.78 kcal/mol; Kd (BC2L-C [2]): 47.5 µM; n (stoichiometry) (BC2L-C [2]): 1 and 1.01
OC[C@H]1O[C@H](OC[C@H]2OC(O)[C@@H](O)[C@@H](O[C@H]3O[C@H](CO)[C@@H](O)[C@H](O)[C@@H]3O)[C@@H]2O)[C@@H](O)[C@@H](O)[C@@H]1O (stereo partly drawn) [Trimannose, Manα1-3(Manα1-6)Man] | 23.3 | 29.45 | 28.8 µM | 0.22 |  | 
C[C@H](O)[C@@H](O)[C@@H](O)[C@H](O)C=O [fucose] |  |  |  |  |  | binding of the lectin to sugar-modified surface (SPR) (BC2L-C [3]): interacts strongly
O=C[C@H](O)[C@@H](O)[C@@H](O)[C@H](O)CO [galactose] |  |  |  |  |  | binding of the lectin to sugar-modified surface (SPR) (BC2L-C [3]): not by galactose
CO[C@H]1O[C@H]([C@@H](O)CO)[C@@H](O)[C@H](O)[C@@H]1O [αMeHept, Methyl L-glycero-α-D-manno-heptopyranoside] | 4.9 | 10.1 | 150 µM | 0.56 |  | 
COC1O[C@H](CO)[C@@H](O)[C@H](O)[C@@H]1O (stereo partly drawn) [αMeMan, α-methyl-mannoside] | 6.93 | 13.1 | 27.6 µM | 0.52 |  | -TΔS (BC2L-C [2]): 11.1 kcal/mol; -ΔH (BC2L-C [2]): 17.6 kcal/mol; Kd (BC2L-C [2]): 18.3 µM; n (stoichiometry) (BC2L-C [2]): 0.49
Manα1–2Man |  |  |  |  | recognised | 
Manα1–3Man |  |  |  |  | recognised | 
Manα1–6Man |  |  |  |  | recognised | 
